Measured values from PubChem BioAssay (NCI).
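Tested at 5 concentrations; 48 h exposure; 96-well plates; endpoints linearly interpolated, else capped at highest concentration. Abbreviation: GI50, concentration required for 50% inhibition of growth. TGI denotes the concentration required for complete inhibition of growth.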 Where a SMILES comes first, the peptide text is derived from it. [ ]: non-standard residue; d: D form.

How the values were obtained:
Test in all cases: NCI-60 cell line screen, 48 h
HCT-116 colon = test system: HCT-116 colon
BT-549 breast = test system: BT-549 breast
OVCAR-8 ovarian = test system: OVCAR-8 ovarian
SF-268 CNS = test system: SF-268 CNS
KM12 colon = test system: KM12 colon
LOX IMVI melanoma = test system: LOX IMVI melanoma
M14 melanoma = test system: M14 melanoma
HT29 colon = test system: HT29 colon
T-47D breast = test system: T-47D breast
UO-31 renal = test system: UO-31 renal

## N#Cc1sc2c(c1OC(=O)c1ccco1)c(=O)n(-c1ccccc1)c(=S)n2-c1ccccc1
HCT-116 colon
  TGI: 41.6 µM
BT-549 breast
  TGI: > 100 µM
OVCAR-8 ovarian
  TGI: > 100 µM
SF-268 CNS
  TGI: > 100 µM
KM12 colon
  TGI: > 100 µM
LOX IMVI melanoma
  TGI: 45.6 µM
M14 melanoma
  TGI: 73.3 µM
HT29 colon
  TGI: > 100 µM
T-47D breast
  TGI: 77.5 µM
UO-31 renal
  TGI: 44.1 µM

## COc1ccc(C(C2=C(O)CC(C)OC2=O)C2=C(O)CC(C)OC2=O)cc1 (centres undefined)
HCT-116 colon
  TGI: > 100 µM
OVCAR-8 ovarian
  TGI: > 100 µM
SF-268 CNS
  TGI: > 100 µM
KM12 colon
  TGI: > 100 µM
LOX IMVI melanoma
  TGI: > 100 µM
M14 melanoma
  TGI: > 100 µM
HT29 colon
  TGI: > 100 µM
UO-31 renal
  TGI: > 100 µM

## C[Si](C)(C)OC1(C#N)c2ccccc2CCCC12CCCC2 (centres undefined)
HCT-116 colon
  TGI: > 100 µM
BT-549 breast
  TGI: > 100 µM
OVCAR-8 ovarian
  TGI: > 100 µM
SF-268 CNS
  TGI: > 100 µM
KM12 colon
  TGI: > 100 µM
LOX IMVI melanoma
  TGI: 49.6 µM
M14 melanoma
  TGI: > 100 µM
HT29 colon
  TGI: > 100 µM
T-47D breast
  TGI: 85.5 µM
UO-31 renal
  TGI: > 100 µM

## CC(C)C[C@H](NC(=O)[C@H](CC(C)C)NC(=O)[C@@H](Cc1c[nH]c2ccccc12)NC(=O)[C@H](Cc1ccccc1)NC(=O)[C@@H](Cc1c[nH]c2ccccc12)NC(=O)[C@H](CCC(N)=O)NC(=O)[C@@H](CCC(N)=O)NC(=O)[C@@H]1CCCN1C(=O)[C@@H](CCCCN)NC(=O)[C@H]1CCCN1C(=O)[C@H](N)CCCN=C(N)N)C(N)=O (H-[dR][dP][dK]P[dQ]Q[dW]F[dW]LL-NH2)
HCT-116 colon
  TGI: > 100 µM
OVCAR-8 ovarian
  TGI: > 100 µM
SF-268 CNS
  TGI: > 100 µM
KM12 colon
  TGI: > 100 µM
LOX IMVI melanoma
  TGI: > 100 µM
HT29 colon
  TGI: > 100 µM
UO-31 renal
  TGI: > 100 µM

## O=C(O)C(Cc1ccccc1)Cc1ccccc1
HCT-116 colon
  TGI: > 100 µM
BT-549 breast
  TGI: > 100 µM
OVCAR-8 ovarian
  TGI: > 100 µM
SF-268 CNS
  TGI: > 100 µM
KM12 colon
  TGI: > 100 µM
LOX IMVI melanoma
  TGI: > 100 µM
M14 melanoma
  TGI: > 100 µM
HT29 colon
  TGI: > 100 µM
T-47D breast
  TGI: > 100 µM
UO-31 renal
  TGI: > 100 µM

## N#Cc1c(/C=C/c2ccccc2)c2c([nH]c1=S)CCCCC2
HCT-116 colon
  TGI: > 100 µM
OVCAR-8 ovarian
  TGI: > 100 µM
SF-268 CNS
  TGI: > 100 µM
KM12 colon
  TGI: > 100 µM
LOX IMVI melanoma
  TGI: > 100 µM
M14 melanoma
  TGI: > 100 µM
HT29 colon
  TGI: > 100 µM
T-47D breast
  TGI: > 100 µM
UO-31 renal
  TGI: > 100 µM

## C=C(C)C1(Sc2ccc(OC)cc2)CC1
HCT-116 colon
  TGI: > 100 µM
BT-549 breast
  TGI: 58 µM
OVCAR-8 ovarian
  TGI: > 100 µM
SF-268 CNS
  TGI: 67 µM
KM12 colon
  TGI: > 100 µM
LOX IMVI melanoma
  TGI: 33.4 µM
M14 melanoma
  TGI: > 100 µM
HT29 colon
  TGI: 61.8 µM
T-47D breast
  TGI: > 100 µM
UO-31 renal
  TGI: > 100 µM

## COc1cc2c3c(n(C)c(=O)c2cc1OC)-c1cc2c(cc1/C3=C\CCCCl)OCO2
HCT-116 colon
  GI50: 40.4 µM
  TGI: > 100 µM
BT-549 breast
  TGI: > 100 µM
OVCAR-8 ovarian
  TGI: > 100 µM
SF-268 CNS
  TGI: > 100 µM
KM12 colon
  TGI: 70.1 µM
LOX IMVI melanoma
  TGI: > 100 µM
M14 melanoma
  TGI: > 100 µM
HT29 colon
  TGI: > 100 µM
T-47D breast
  TGI: > 100 µM
UO-31 renal
  TGI: > 100 µM

## C/C(=N\N=C(N)N)C(CN1CCOCC1)C(c1ccccc1)c1c(O)c2ccccc2oc1=O (centres undefined)
HCT-116 colon
  TGI: > 100 µM
OVCAR-8 ovarian
  TGI: > 100 µM
SF-268 CNS
  TGI: > 100 µM
KM12 colon
  TGI: > 100 µM
LOX IMVI melanoma
  TGI: > 100 µM
M14 melanoma
  TGI: > 100 µM
HT29 colon
  TGI: > 100 µM

## CCSC12OC3(CCCCCN3C1=O)C1C(=O)N(c3ccccc3)C(=O)C12 (centres undefined)
HCT-116 colon
  TGI: > 100 µM
BT-549 breast
  TGI: > 100 µM
OVCAR-8 ovarian
  TGI: > 100 µM
SF-268 CNS
  TGI: > 100 µM
KM12 colon
  TGI: > 100 µM
LOX IMVI melanoma
  TGI: > 100 µM
M14 melanoma
  TGI: > 100 µM
HT29 colon
  TGI: > 100 µM
T-47D breast
  TGI: > 100 µM
UO-31 renal
  TGI: > 100 µM

## O=C(CC12C3C4C1C1C2C3C41CC(=O)NO)NO (centres undefined)
HCT-116 colon
  TGI: > 100 µM
OVCAR-8 ovarian
  TGI: > 100 µM
SF-268 CNS
  TGI: > 100 µM
KM12 colon
  TGI: > 100 µM
LOX IMVI melanoma
  TGI: 74.5 µM
M14 melanoma
  TGI: > 100 µM
HT29 colon
  TGI: 88.7 µM

## CCC[N+](C)(C)CCCNC(=O)c1c(O)c2ccccc2[nH]c1=O
HCT-116 colon
  TGI: > 100 µM
BT-549 breast
  TGI: > 100 µM
OVCAR-8 ovarian
  TGI: > 100 µM
SF-268 CNS
  TGI: > 100 µM
KM12 colon
  TGI: > 100 µM
LOX IMVI melanoma
  TGI: > 100 µM
HT29 colon
  TGI: > 100 µM
T-47D breast
  TGI: > 100 µM
UO-31 renal
  TGI: > 100 µM

## N=C(N)SCc1nc(-c2ccc(Cl)cc2)no1
HCT-116 colon
  TGI: 31.9 µM
BT-549 breast
  TGI: 50.6 µM
OVCAR-8 ovarian
  TGI: > 100 µM
SF-268 CNS
  TGI: > 100 µM
KM12 colon
  TGI: > 100 µM
LOX IMVI melanoma
  TGI: 31.2 µM
M14 melanoma
  TGI: 45.6 µM
HT29 colon
  TGI: 29.3 µM
T-47D breast
  TGI: 29.9 µM

## N#CC1=C(O)NC(O)=C(C#N)C1c1c(Cl)cccc1Cl
HCT-116 colon
  TGI: > 100 µM
OVCAR-8 ovarian
  TGI: 45 µM
SF-268 CNS
  TGI: > 100 µM
KM12 colon
  TGI: 71.5 µM
LOX IMVI melanoma
  TGI: 32 µM
M14 melanoma
  TGI: > 100 µM
HT29 colon
  TGI: > 100 µM
UO-31 renal
  TGI: > 100 µM

## CC1CN(c2cc3c(cc2F)c(=O)c(C(=O)O)cn3-c2ccc(N3CCN(C)CC3)cn2)CC(C)N1 (centres undefined)
HCT-116 colon
  TGI: > 100 µM
BT-549 breast
  TGI: > 100 µM
OVCAR-8 ovarian
  TGI: > 100 µM
SF-268 CNS
  TGI: > 100 µM
KM12 colon
  TGI: > 100 µM
M14 melanoma
  TGI: > 100 µM
HT29 colon
  TGI: > 100 µM
T-47D breast
  TGI: > 100 µM
UO-31 renal
  TGI: > 100 µM

## O=C1CCCC1CC(CN1CCOCC1)Sc1nnnn1-c1ccccc1 (centres undefined)
HCT-116 colon
  TGI: > 100 µM
BT-549 breast
  TGI: > 100 µM
OVCAR-8 ovarian
  TGI: > 100 µM
KM12 colon
  TGI: > 100 µM
LOX IMVI melanoma
  TGI: > 100 µM
M14 melanoma
  TGI: > 100 µM
HT29 colon
  TGI: > 100 µM
UO-31 renal
  TGI: > 100 µM

## NS(=O)(=O)c1nnc(NS(=O)(=O)c2cccc3cccnc23)s1
HCT-116 colon
  TGI: > 100 µM
BT-549 breast
  TGI: > 100 µM
OVCAR-8 ovarian
  TGI: > 100 µM
SF-268 CNS
  TGI: > 100 µM
KM12 colon
  TGI: > 100 µM
LOX IMVI melanoma
  TGI: > 100 µM
M14 melanoma
  TGI: > 100 µM
T-47D breast
  TGI: > 100 µM
UO-31 renal
  TGI: > 100 µM

## O=S(=O)(O)c1cc(S(=O)(=O)O)c2cc(N=Nc3ccc(N=Nc4ccc(/C=C/c5ccc(N=[N+]([O-])c6ccc(/C=C/c7ccc(N=Nc8ccc(N=Nc9ccc%10cc(S(=O)(=O)O)cc(S(=O)(=O)O)c%10c9)cc8)cc7S(=O)(=O)O)c(S(=O)(=O)O)c6)cc5S(=O)(=O)O)c(S(=O)(=O)O)c4)cc3)ccc2c1
HCT-116 colon
  TGI: > 100 µM
OVCAR-8 ovarian
  TGI: > 100 µM
SF-268 CNS
  TGI: > 100 µM
KM12 colon
  TGI: > 100 µM
LOX IMVI melanoma
  TGI: > 100 µM
HT29 colon
  TGI: > 100 µM
UO-31 renal
  TGI: > 100 µM

## CSc1ccc(N2C(=O)C3c4[nH]c5ccccc5c4C4CCC(C(C)(C)C)CC4C3C2=O)cc1 (centres undefined)
HCT-116 colon
  TGI: 18 µM
OVCAR-8 ovarian
  TGI: 27.8 µM
SF-268 CNS
  TGI: 45.4 µM
KM12 colon
  TGI: > 100 µM
LOX IMVI melanoma
  TGI: 31.8 µM
M14 melanoma
  TGI: > 100 µM
HT29 colon
  TGI: > 100 µM
UO-31 renal
  TGI: 40.7 µM

## O=C1Sc2ccccc2C(=O)N2CCSC12 (centres undefined)
HCT-116 colon
  TGI: > 100 µM
OVCAR-8 ovarian
  TGI: > 100 µM
KM12 colon
  TGI: > 100 µM
LOX IMVI melanoma
  TGI: > 100 µM
M14 melanoma
  TGI: > 100 µM
UO-31 renal
  TGI: > 100 µM

## NC1(c2cc3ccccc3s2)CCCCCC1
HCT-116 colon
  TGI: 29.5 µM
BT-549 breast
  TGI: 32.6 µM
OVCAR-8 ovarian
  TGI: 35.8 µM
KM12 colon
  TGI: 30.5 µM
LOX IMVI melanoma
  TGI: 43 µM
M14 melanoma
  TGI: 37.2 µM
HT29 colon
  TGI: 29.3 µM
UO-31 renal
  TGI: 28.1 µM

## [N-]=[N+]=C(C(=O)CN1CCCC1=O)S(=O)(=O)c1ccccc1
HCT-116 colon
  TGI: > 100 µM
BT-549 breast
  TGI: > 100 µM
OVCAR-8 ovarian
  TGI: > 100 µM
SF-268 CNS
  TGI: > 100 µM
KM12 colon
  TGI: > 100 µM
LOX IMVI melanoma
  TGI: > 100 µM
M14 melanoma
  TGI: > 100 µM
HT29 colon
  TGI: > 100 µM
UO-31 renal
  TGI: > 100 µM
